Measurements as given in paper PMC10179475, “Flavone and Hydroxyflavones Are Ligands That Bind the Orphan Nuclear Receptor 4A1 (NR4A1)” (International Journal of Molecular Sciences, 2023).
“Also recorded” adds a separate entry of the source. Read-outs that look alike come from different tables or passages of the source.

Columns and labels:
[1] = target: ligand-binding domain (LBD) of NR4A1 (Homo sapiens, UniProt P22736); experiment: Direct-binding fluorescence assay (quenching of NR4A1 tryptophan fluorescence)
Sequence of ligand-binding domain (LBD) of NR4A1 (P22736 360-595 limits assumed): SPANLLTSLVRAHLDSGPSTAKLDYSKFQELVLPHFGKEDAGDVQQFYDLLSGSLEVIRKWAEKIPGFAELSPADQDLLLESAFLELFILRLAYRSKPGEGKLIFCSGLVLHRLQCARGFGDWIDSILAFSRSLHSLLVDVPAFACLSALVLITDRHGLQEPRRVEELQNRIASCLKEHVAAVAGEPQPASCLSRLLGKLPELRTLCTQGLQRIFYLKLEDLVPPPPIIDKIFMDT
Protocol: (§1) Tryptophan fluorescence spectra were obtained essentially as described. Briefly, the ligand-binding domain of NR4A1 at the final concentration of 0.5 µmol/L in 1.0 mL of phosphate-buffered saline (PBS, pH 7.4) was used for fluorescence measurements. The protein was incubated for 3 min at 25 °C in a temperature-controlled (Quantum Northwest TC125) fluorescence spectrophotometer (Varian Cary Eclipse). The fluorescence spectra were obtained using an excitation wavelength of 285 nm (excitation slit width = 5 nm) and an emission wavelength range of 300–420 nm (emission slit width = 5 nm). Aliquots (0.1 µL/aliquot) of the ligand (10 mmol ligand/L ethanol) were then added to the cuvette containing NR4A1 to reach a final ligand concentration of up to 60 µmol/L. After each aliquot of the ligand, the NR4A1/ligand solution was incubated at 25 °C for 3 min and the loss of tryptophan fluorescence was measured as described above. The addition of DMSO only (up to a final volume of 3.0 µL) had no effect on NR4A1 tryptophan fluorescence. […] Fluorescence intensity at each ligand concentration was used to correct the NR4A1 tryptophan fluorescence intensity as described.

[2] = target: NR4A1 protein (ligand-binding domain: LBD) (Homo sapiens, UniProt P22736); experiment: Isothermal titration calorimetry (ITC) binding assay;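 further: ligand titrated into 20 µmol/L NR4A1 LBD in sodium phosphate buffer pH 7.4 with glycerol and ethanol, thirty injections, heat flow corrected for ligand-into-buffer dilution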
Sequence of NR4A1 protein (ligand-binding domain: LBD) (P22736 360-595 limits assumed): as above

GAL4-NR4A1 [3] = target: T1, GAL4-NR4A1 (Homo sapiens, UniProt P22736); experiment: NR4A1-dependent transactivation, GAL4-NR4A1/UAS-luc, Panc1 cells; type: cell-based; design: expressed in transfected cells; host or cells: Panc1 pancreatic cancer cells; Rh30 rhabdomyosarcoma cells; settings: for effect on luciferase activity: 25 or 50 µM, p < 0.05
T1 sequence (P22736 360-595 limits assumed): as above
Protocol: Figure 3 Hydroxyflavonoid activation of NR4A1-dependent transactivation. Panc1 cells were cotransfected with GAL4-NR4A1 and UAS-luciferase constructs, cells were treated with 25 and 50 µM hydroxyflavonoids and luciferase activity (normalized to β-galactosidase activity) was determined. Results were determined in triplicate for each concentration and are plotted as mean values ±SE. Significant induction or inhibition (p < 0.05) of luciferase activity is illustrated (*).
The UAS-luciferase reporter gene containing 5 GAL4 binding sites and the GAL4-NR4A1 chimera containing the GAL4 DNA-binding domain which linked to the ligand-binding domain (LBD) of NR4A1 were used in transactivation assays in Panc1 pancreatic cancer cells. Panc-1 cells were plated in a 24-well plate (3 × 10^4 cells/well) and grown for 24 h. Cells were then co-transfected with each construct (250 ng) and the β-gal expression construct (25 ng) using GeneJuice (Novagen, Madison, WI, USA) in accordance with the manufacture’s protocol. The medium was removed after 18 h and replaced with a 2.5% charcoal-stripped FBS-supplemented medium containing either DMSO or flavonoids (25 and 50 µM) in DMSO. After 24 h, cells were then lysed, and cell extracts were processed to measure luciferase activity. Luciferase activity was normalized by dividing the β-gal expression and each treatment was determined in three independent experiments. Data were expressed as mean ± SE and significant (p < 0.05) effects were noted.

GAL4-NR4A1 [4] = target: T1, GAL4-NR4A1; experiment: NR4A1-dependent transactivation, GAL4-NR4A1/UAS-luc, Rh30 cells; type: cell-based; design: expressed in transfected cells; host or cells: Rh30 rhabdomyosarcoma cells; settings: for effect on NR4A1-dependent transactivation: 50 µM
rhabdomyosarcoma tumor = system: rhabdomyosarcoma tumor; design: method as in PMID 34906197; settings: athymic mouse xenograft model; cited from earlier work
GAL4-NR4A1 [5] = target: T1, GAL4-NR4A1; design: expressed in transfected cells; host or cells: Rh30 rhabdomyosarcoma cells; method as in PMID 34906197; settings: Rh30 rhabdomyosarcoma cells, same constructs, cited from earlier work
[6] = Solubility in the fluorescence assay; type: physicochemical; settings: aqueous
Protocol: as §1

ERα = system: ERα; design: method as in PMID 18095219; settings: cited from earlier work
[7] = fluorescence (Trp quenching) assay, Table 1 head prints no unit, µM from text and Figure 5, read-out: KD, direct binding assay
[8] = fluorescent binding assay, read-out: KD (Figure 1)

| SMILES | Kd [1, 7] | ITC assay ΔG ([2]; 25 °C) | Kd ([2]; 25 °C, read-out: ITC assay Kd1) | effect on NR4A1-dependent transactivation (GAL4-NR4A1 [4]) | effect on luciferase activity (GAL4-NR4A1 [3]) | other results |
| --- | --- | --- | --- | --- | --- | --- |
| O=c1cc(-c2ccccc2)oc2cc(O)c(O)c(O)c12 [5,6,7 -Trihydroxyflavone (Baicalein), 5,6,7-Trihydroxyflavone] | 1.85 µM | -9.42 kcal/mol | 130 nM |  | significantly induced luciferase activity |  |
| Clc1cc(Cl)cc(C(c2c[nH]c3ccccc23)c2c[nH]c3ccccc23)c1 [DIM-3,5-CI2, 1,1-bis(3′-indolyl)-1-(3,5-dichlorophenyl)methane, reference compound] |  |  |  | decreased transactivation |  |  |
| O=c1cc(-c2cccc(O)c2)oc2ccccc12 [3′-Hydroxyflavone] | 45.8 µM | -8.84 kcal/mol | 330 nM |  |  | Kd [1, 8]: 45.8 µM |
| O=c1cc(-c2ccccc2)oc2cc(O)ccc12 [7-Hydroxyflavone] | 7.4 µM | -10.1 kcal/mol |  |  | significantly induced luciferase activity | Kd [2]: 42 nM; induction of luciferase activity (GAL4-NR4A1 [4]): < 2.4 fold; induction of luciferase activity (GAL4-NR4A1 [3]): < 2.4 fold |
| O=c1c(O)c(-c2ccccc2)oc2cc(O)ccc12 [3,7-Dihydroxyflavone] | 2.8 µM | -9.2 kcal/mol | 180 nM | potent inhibition |  |  |
| O=c1cc(-c2ccc(O)cc2)oc2cc(O)ccc12 [7,4’-Dihydroxyflavone] | 9.1 µM | -8.63 kcal/mol | 490 nM |  |  |  |
| O=c1c(O)c(-c2ccccc2)oc2ccc(O)cc12 [3,6-Dihydroxyflavone] | 0.66 µM | -4.57 kcal/mol | 444000 nM | potent inhibition |  |  |
| O=c1cc(-c2ccc(O)cc2)oc2ccccc12 [4′-Hydroxyflavone] | 13 µM | -9.42 kcal/mol | 150 nM | potent inhibition | significantly induced luciferase activity |  |
| O=c1c(O)c(-c2ccccc2)oc2cc(O)cc(O)c12 [3,5,7 -Trihydroxyflavone (Galangin), 3,5,7-Trihydroxyflavone] | 0.36 µM | -12.2 kcal/mol | 1 nM | potent inhibition | decreased luciferase activity |  |
| O=c1cc(-c2ccccc2)oc2c(O)c(O)ccc12 [7,8-Dihydroxyflavone] | 17.6 µM | -10.1 kcal/mol | 42 nM |  |  |  |
| O=c1c(O)c(-c2ccccc2)oc2ccccc12 [3-Hydroxyflavone] |  | -10.4 kcal/mol | 22.5 nM |  |  | solubility [6]: insoluble; solubility ([6]; listed as 3-hydroxyflavone): aqueous insolubility |
| O=c1cc(-c2ccccc2)oc2ccccc12 [Flavone] | 3.4 µM | -9.73 kcal/mol | 75 nM |  |  |  |
| O=c1cc(-c2ccccc2)oc2ccc(O)cc12 [6-Hydroxyflavone] | 12.5 µM | -10.3 kcal/mol | 32 nM | decreased transactivation | significantly induced luciferase activity |  |
| O=c1c(O)c(-c2ccc(O)c(O)c2)oc2cc(O)cc(O)c12 | 0.81 µM | -8.8 kcal/mol | 350 nM | decreased transactivation | significantly induced luciferase activity | ER binding (ERα): did not bind ERα; tumor growth (rhabdomyosarcoma tumor): inhibited tumor growth; effect on luciferase activity / NR4A1-dependent transactivation (previous studies) (GAL4-NR4A1 [5]; listed as quercetin): decreased luciferase activity; also recorded: decreased NR4A1-dependent transactivation |

More lines, main results first:

| Kd [1, 7] | ITC assay ΔG ([2]; 25 °C) | Kd ([2]; 25 °C, read-out: ITC assay Kd1) | effect on NR4A1-dependent transactivation (GAL4-NR4A1 [4]) | SMILES | effect on luciferase activity (GAL4-NR4A1 [3]) | other results |
| --- | --- | --- | --- | --- | --- | --- |
| 1.77 µM | -8.53 kcal/mol | 570 nM | decreased transactivation | O=c1cc(-c2ccc(O)cc2)oc2cc(O)cc(O)c12 [5,7,4′-Trihydroxyflavone (Apigenin), 5,7,4′-Trihydroxyflavone] |  | Kd [1, 8]: 0.08 µM |
| 3.1 µM | -5.47 kcal/mol | 97100 nM | decreased transactivation | O=c1c(O)c(-c2ccc(O)cc2)oc2cc(O)cc(O)c12 [3,5,7,4′-Tetrahydroxyflavone] |  | tumor growth (rhabdomyosarcoma tumor): inhibited tumor growth; effect on luciferase activity / NR4A1-dependent transactivation (previous studies) (GAL4-NR4A1 [5]; listed as kaempferol): decreased luciferase activity; also recorded: decreased NR4A1-dependent transactivation |
|  |  |  | potent inhibition | O=c1c(O)c(-c2ccc(O)c(O)c2)oc2cccc(O)c12 [3,5,3′,4-tetrahydroxyflavone] |  |  |
| 11.3 µM | -12.3 kcal/mol | 1 nM |  | O=c1cc(-c2ccccc2)oc2cc(O)cc(O)c12 [5,7 Dihydroxyflavone] |  |  |
| 21.4 µM | -9.25 kcal/mol | 170 nM |  | O=c1cc(-c2cccc(O)c2)oc2cc(O)ccc12 [7,3′-Dihydroxyflavone] |  |  |
| 1.4 µM | -6.45 kcal/mol | 18000 nM |  | O=c1cc(-c2ccccc2)oc2cccc(O)c12 [5-Hydroxyflavone] |  |  |
| 0.96 µM | -6.86 kcal/mol | 9500 nM |  | O=c1cc(-c2ccc(O)c(O)c2)oc2ccccc12 [3′,4′-Dihydroxyflavone] |  | induction of luciferase activity (GAL4-NR4A1 [4]): < 2.4 fold; induction of luciferase activity (GAL4-NR4A1 [3]): < 2.4 fold |
| 5.1 µM | -10.5 kcal/mol | 19 nM |  | O=c1cc(-c2ccc(O)c(O)c2)oc2cc(O)cc(O)c12 [5,7,3′4′-Tetrahydroxyflavone (Luteolin), 5,7,3′4′-Tetrahydroxyflavone] | significantly induced luciferase activity |  |
